Measurements: US9675627B2, “Dosing regimens for treating and/or preventing cerebral amyloidoses” (Amicus Therapeutics, Inc., priority 2014, dated 2017)

Columns and labels:
β-hex [1] = assay: Proof-of-concept study: brain β-hex levels; format: in vivo, Dutch APP^E693Q transgenic mice; conditions: 3-month course
Protocol: (§1) The generation and characterization of Dutch APPE693Q mice transgenic mice is described in Gandy, S., et al. Days to criterion as an indicator of toxicity associated with human Alzheimer amyloid-beta oligomers. Annals of neurology 68, 220-230 (2010). 3-month-old male Dutch APP^E693Q mice transgenic mice were orally gavaged 5 days/week with either vehicle (water) (n=15) or 3, 10, 30 or 100 mg/kg AdDNJ for 3 months (n=13). All animal studies were approved and conducted in accordance with the Institutional Animal Care and Usage Committee. Mice were kept in a pathogen-free environment, on a 12-hour light/dark cycle and given ad libitum access to food and water. At 6 month of age treatment groups, and a 3-month-old untreated baseline group (n=15), were cognitively assessed in the NOR, EPM and FC tests. 48 hours following the final dose mice were perfused with ice-cold 1×PBS. The brain was removed and dissected into two hemispheres. One half was snap-frozen on dry ice and stored at −80° C. for biochemistry; the other half was post-fixed in 4% paraformaldehyde then sagittally sectioned on a vibratome into 30 μm sections and stored at 4° C. in storage buffer until histological analyses.

β-hex [2] = molecular target: T1, β-hex (Mus musculus, UniProt P20060); assay: Proof-of-concept study: brain β-hex levels; format: in vivo, Dutch APP^E693Q transgenic mice; conditions: 3-month course, dose-dependent
T1 construct: from tissue; host or cells: brain of Dutch APP E693Q transgenic mice
T1 sequence (P20060 32-536): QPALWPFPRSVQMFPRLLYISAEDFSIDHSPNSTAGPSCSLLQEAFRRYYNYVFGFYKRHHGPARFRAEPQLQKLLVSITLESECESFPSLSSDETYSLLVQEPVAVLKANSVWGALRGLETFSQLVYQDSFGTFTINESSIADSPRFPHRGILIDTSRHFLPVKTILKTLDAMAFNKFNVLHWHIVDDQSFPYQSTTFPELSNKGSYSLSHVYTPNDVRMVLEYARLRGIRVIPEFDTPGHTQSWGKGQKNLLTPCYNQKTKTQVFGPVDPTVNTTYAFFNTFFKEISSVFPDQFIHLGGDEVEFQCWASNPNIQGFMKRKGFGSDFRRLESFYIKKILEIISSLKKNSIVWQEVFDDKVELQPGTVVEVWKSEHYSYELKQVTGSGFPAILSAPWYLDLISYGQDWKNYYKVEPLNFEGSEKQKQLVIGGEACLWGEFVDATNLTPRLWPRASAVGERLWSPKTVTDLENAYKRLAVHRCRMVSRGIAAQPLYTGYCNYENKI
Protocol: as §1

[3] = system: ganglioside-bound Aβ (GAβ); assay: GAβ immunohistochemistry (clone 4396C); format: in vivo, Dutch APP^E693Q transgenic mice; conditions: 100 mg/kg, 3 months
Protocol: as §1
(§2) Aβ was assessed via free-floating immunohistochemistry using mAb 6E10 (1:1000, Covance) as previously described20. GAβ was assessed via free-floating immunohistochemistry using mouse anti-GAβ, clone 4396C (1:100), a gift from Dr. Katsuhiko Yanagisawa as previously described19. Images were captured on an Olympus BX61 upright microscope with an attached Olympus DP71 camera. Integrated density of GAβ staining was measured using Image J (National Institute of Health, Bethesda, Md.).

[4] = system: GM1, GM2, and GM3 ganglioside levels; assay: TLC analysis of whole brain ganglioside levels; format: in vivo, Dutch APP^E693Q transgenic mice; conditions: 3 months of 100 mg/kg
Protocol: as §1

human skin fibroblasts = assay: Cell viability, tetrazolium-formazan conversion; format: cell-based; conditions: concentrations as high as 1 mM, up to 120 hours
Protocol: Viability of human fibroblast (CRL2076) and human neuroblastoma (SH-SY5Y) cells was tested after prolonged exposure to varying concentrations of AdDNJ. In a 96-well plate, fibroblasts were incubated in complete media containing increasing concentrations of AdDNJ up to 1 mM for either 72 or 120 hours at 37° C. in a humidified 8% CO2 incubator. Living cells were quantified using a tetrazoliuim-formazan conversion method according to the manufacturer's instructions (Promega Non-Radioactive 96-well Titer assay, TB112). SH-SY5Y cells were tested in the same manner as fibroblasts but plated in collagen-coated plates (Nunc #152036). After 24 hour, 48 hour and 120 hour exposure to AdDNJ, living SH-SY5Y cells were quantified as described above. All dosing concentrations were done in triplicate.

Aβ = Aβ immunohistochemistry (mAb 6E10); format: in vivo, Dutch APP^E693Q transgenic mice; conditions: 100 mg/kg, 3 months
Protocol: as §1, §2

Structure (SMILES): CC(=O)NC1CNC(CO)[C@@H](O)C1O (stereo partly shown) [AdDNJ, 2-acetamido-1,2-dideoxynojirimycin]
- increase in total brain β-hex (β-hex [1]; 3-100 mg/kg oral 5 days/week, at the highest dose): up to 3 fold
- brain β-hex A&S level (β-hex [1]; dose-dependent): increased
- brain β-hex B level (β-hex [2]): increased
- GAβ immunoreactivity, CA1 region of the hippocampus [3]: did not reach significance
- GAβ immunoreactivity, lateral entorhinal cortex [3]: trend toward reduction
- GAβ immunoreactivity, perirhinal cortex [3]: striking quantitative reduction
- GAβ immunoreactivity, subiculum [3]: striking quantitative reduction
- GAβ immunoreactivity, visual cortex [3]: did not reach significance
- ganglioside levels in whole brain extracts (TLC) [4]: did not reveal any changes in ganglioside levels
- effect on cell viability (human skin fibroblasts): little or no effect on cell viability
- Aβ accumulation, CA1 region of the hippocampus (Aβ): no differences were observed
- Aβ accumulation, subiculum (Aβ): qualitative region-specific reduction of Aβ accumulation
- Aβ accumulation, visual cortex (Aβ): no differences were observed
